Laboratory results reported in US10392368B2, “Pyrazolo and triazolo bicyclic compounds as JAK kinase inhibitors” (THERAVANCE BIOPHARMA R&D IP, LLC, priority 2017, dated 2019).

Key:
[1] = biological target: T1, JAK1 (Homo sapiens, UniProt P23458); assay: Biochemical JAK1 kinase assay (LanthaScreen); settings: for Ki: read-out: JAK 1 (pKi) (converted)
T1 construct: GST; purchased Life Technologies
Summary of the method: (§1)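 GST-JAK + GFP-STAT1 peptide + cpd, 1 h preinc RT; ATP start, 1% DMSO, 1 h RT; stop 10 mM EDTA + 2 nM Tb-anti-pSTAT1; 1 h; TR-FRET 520/495. % inhib vs DMSO/background → IC50 (4-PL) → pKi (Cheng-Prusoff).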

[2] = biological target: T2, JAK2 (Homo sapiens, UniProt O60674); assay: Biochemical JAK2 kinase assay (LanthaScreen); settings: for Ki: read-out: JAK 2 (pKi) (converted)
T2 construct: GST; purchased Life Technologies
T2 sequence (O60674 whole entry): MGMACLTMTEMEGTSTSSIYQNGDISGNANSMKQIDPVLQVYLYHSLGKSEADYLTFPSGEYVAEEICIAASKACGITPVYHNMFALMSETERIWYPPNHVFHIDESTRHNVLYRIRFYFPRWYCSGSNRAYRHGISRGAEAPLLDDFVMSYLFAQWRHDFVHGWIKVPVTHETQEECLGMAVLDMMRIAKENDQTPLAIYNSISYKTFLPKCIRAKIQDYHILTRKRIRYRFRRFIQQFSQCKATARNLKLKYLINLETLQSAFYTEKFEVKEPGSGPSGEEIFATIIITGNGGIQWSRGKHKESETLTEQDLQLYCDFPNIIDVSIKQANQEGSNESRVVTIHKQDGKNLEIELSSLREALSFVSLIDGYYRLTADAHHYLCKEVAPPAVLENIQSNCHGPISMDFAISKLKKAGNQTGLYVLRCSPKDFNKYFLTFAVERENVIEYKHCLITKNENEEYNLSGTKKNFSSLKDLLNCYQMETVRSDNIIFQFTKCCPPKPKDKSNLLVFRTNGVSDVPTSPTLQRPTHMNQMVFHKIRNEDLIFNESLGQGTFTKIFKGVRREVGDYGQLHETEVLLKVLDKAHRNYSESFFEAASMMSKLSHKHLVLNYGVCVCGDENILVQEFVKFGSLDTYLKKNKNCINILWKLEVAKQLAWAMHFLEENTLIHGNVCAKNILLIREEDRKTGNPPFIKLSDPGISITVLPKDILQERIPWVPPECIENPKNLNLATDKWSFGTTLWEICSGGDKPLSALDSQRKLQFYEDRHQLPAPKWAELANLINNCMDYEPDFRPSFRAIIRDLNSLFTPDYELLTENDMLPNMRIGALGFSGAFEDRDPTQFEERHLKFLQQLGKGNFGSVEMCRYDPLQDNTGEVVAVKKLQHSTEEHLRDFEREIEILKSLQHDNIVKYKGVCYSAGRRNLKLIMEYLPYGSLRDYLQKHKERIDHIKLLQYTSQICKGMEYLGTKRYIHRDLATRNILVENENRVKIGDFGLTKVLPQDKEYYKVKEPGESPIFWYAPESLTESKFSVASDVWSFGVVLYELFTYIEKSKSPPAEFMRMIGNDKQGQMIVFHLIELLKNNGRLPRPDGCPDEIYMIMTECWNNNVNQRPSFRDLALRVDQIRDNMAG
Description: (§2) A panel of four LanthaScreen JAK biochemical assays (JAK1, 2, 3 and Tyk2) were carried in a common kinase reaction buffer (50 mM HEPES, pH 7.5, 0.01% Brij-35, 10 mM MgCl2, and 1 mM EGTA). Recombinant GST-tagged JAK enzymes and a GFP-tagged STAT1 peptide substrate were obtained from Life Technologies.
(§3) Serially or discretely diluted compounds were pre-incubated with each of the four JAK enzymes and the substrate in white 384-well microplates (Corning) at ambient temperature for 1 h. ATP was subsequently added to initiate the kinase reactions in 10 μL total volume, with 1% DMSO. […] Kinase reactions were allowed to proceed for 1 hour at ambient temperature before a 10 μL preparation of EDTA (10 mM final concentration) and Tb-anti-pSTAT1 (pTyr701) antibody (Life Technologies, 2 nM final concentration) in TR-FRET dilution buffer (Life Technologies) was added. The plates were allowed to incubate at ambient temperature for 1 h before being read on the EnVision reader (Perkin Elmer).
(§4) For dose-response analysis, percent inhibition data were plotted vs. compound concentrations, and IC50 values were determined from a 4-parameter robust fit model with the Prism software (GraphPad Software). Results were expressed as pIC50 (negative logarithm of IC50) and subsequently converted to pKi (negative logarithm of dissociation constant, Ki) using the Cheng-Prusoff equation.

[3] = biological target: T3, Tyk2 (Homo sapiens, UniProt P29597); assay: Biochemical Tyk2 kinase assay (LanthaScreen); settings: for Ki: read-out: Tyk 2 (pKi) (converted)
T3 construct: GST; purchased Life Technologies
T3 sequence (P29597 whole entry): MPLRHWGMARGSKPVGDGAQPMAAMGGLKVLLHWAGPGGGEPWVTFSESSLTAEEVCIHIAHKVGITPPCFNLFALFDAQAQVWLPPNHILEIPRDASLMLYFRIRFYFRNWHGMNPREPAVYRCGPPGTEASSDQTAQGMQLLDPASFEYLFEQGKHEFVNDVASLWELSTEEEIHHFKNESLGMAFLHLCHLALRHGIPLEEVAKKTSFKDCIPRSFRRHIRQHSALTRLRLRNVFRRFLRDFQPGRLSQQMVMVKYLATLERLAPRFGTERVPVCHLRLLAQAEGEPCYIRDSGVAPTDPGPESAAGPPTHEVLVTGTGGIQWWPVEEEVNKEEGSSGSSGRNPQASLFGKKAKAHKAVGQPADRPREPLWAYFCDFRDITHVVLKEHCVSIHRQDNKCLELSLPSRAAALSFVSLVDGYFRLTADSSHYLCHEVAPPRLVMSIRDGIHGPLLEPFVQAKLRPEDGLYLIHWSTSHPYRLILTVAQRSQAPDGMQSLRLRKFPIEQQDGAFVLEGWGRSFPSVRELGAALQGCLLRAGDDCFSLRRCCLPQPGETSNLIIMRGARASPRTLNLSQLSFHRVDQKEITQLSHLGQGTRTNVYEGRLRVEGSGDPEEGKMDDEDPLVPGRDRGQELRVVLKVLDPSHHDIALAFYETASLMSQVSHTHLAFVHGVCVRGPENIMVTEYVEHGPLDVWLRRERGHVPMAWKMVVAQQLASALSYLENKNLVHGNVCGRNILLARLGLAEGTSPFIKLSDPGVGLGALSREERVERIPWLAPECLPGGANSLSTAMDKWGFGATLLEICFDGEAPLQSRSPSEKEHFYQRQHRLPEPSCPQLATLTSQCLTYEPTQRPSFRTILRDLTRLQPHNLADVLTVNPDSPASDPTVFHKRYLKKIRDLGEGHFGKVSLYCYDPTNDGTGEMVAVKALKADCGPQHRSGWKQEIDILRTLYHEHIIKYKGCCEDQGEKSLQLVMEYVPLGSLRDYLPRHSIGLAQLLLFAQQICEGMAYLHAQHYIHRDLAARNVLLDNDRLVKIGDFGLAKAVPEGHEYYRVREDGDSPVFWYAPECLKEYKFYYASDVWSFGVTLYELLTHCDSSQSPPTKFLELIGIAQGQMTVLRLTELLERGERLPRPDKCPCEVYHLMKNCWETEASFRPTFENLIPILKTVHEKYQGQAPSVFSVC
Description: as §2
as §3, with “Elmer). Emission ratio signals (520 nm/495 nm) were recorded and utilized to calculate the percent inhibition values based on DMSO and background controls.” for “Elmer).”
as §4

[4] = tested on: IL-2 stimulated pSTAT5 in Tall-1 T cells; assay: Cellular JAK3 potency assay: inhibition of IL-2 stimulated pSTAT5 in Tall-1 T cells; format: cell-based, human; settings: for IC50: Homo sapiens, TALL-1, IL-2 stimulated pSTAT5 in Tall-1 T cells, read-out: Tall-1 (pIC50) (converted); for Tall-1 (pIC50): IL-2 stimulated pSTAT5 in Tall-1 T cells
Summary of the method: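 Tall-1 human T cells were preincubated with compound for 1 h at 37° C, then stimulated with IL-2 (300 ng/ml final) for 30 min. STAT5 phosphorylation in lysates was read by AlphaLisa bead emission, and IC50 from inhibition curves is given as pIC50 (mean±SD).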

[5] = biological target: T4, JAK3 (Homo sapiens, UniProt P52333); assay: Biochemical JAK3 kinase assay (LanthaScreen); design: GST; purchased Life Technologies; settings: for Ki: read-out: JAK 3 (pKi) (converted); for JAK3 (pKi)-JAK1 (pKi): selectivity: difference of pKi JAK3 and pKi JAK1
T4 sequence (P52333 1-1124): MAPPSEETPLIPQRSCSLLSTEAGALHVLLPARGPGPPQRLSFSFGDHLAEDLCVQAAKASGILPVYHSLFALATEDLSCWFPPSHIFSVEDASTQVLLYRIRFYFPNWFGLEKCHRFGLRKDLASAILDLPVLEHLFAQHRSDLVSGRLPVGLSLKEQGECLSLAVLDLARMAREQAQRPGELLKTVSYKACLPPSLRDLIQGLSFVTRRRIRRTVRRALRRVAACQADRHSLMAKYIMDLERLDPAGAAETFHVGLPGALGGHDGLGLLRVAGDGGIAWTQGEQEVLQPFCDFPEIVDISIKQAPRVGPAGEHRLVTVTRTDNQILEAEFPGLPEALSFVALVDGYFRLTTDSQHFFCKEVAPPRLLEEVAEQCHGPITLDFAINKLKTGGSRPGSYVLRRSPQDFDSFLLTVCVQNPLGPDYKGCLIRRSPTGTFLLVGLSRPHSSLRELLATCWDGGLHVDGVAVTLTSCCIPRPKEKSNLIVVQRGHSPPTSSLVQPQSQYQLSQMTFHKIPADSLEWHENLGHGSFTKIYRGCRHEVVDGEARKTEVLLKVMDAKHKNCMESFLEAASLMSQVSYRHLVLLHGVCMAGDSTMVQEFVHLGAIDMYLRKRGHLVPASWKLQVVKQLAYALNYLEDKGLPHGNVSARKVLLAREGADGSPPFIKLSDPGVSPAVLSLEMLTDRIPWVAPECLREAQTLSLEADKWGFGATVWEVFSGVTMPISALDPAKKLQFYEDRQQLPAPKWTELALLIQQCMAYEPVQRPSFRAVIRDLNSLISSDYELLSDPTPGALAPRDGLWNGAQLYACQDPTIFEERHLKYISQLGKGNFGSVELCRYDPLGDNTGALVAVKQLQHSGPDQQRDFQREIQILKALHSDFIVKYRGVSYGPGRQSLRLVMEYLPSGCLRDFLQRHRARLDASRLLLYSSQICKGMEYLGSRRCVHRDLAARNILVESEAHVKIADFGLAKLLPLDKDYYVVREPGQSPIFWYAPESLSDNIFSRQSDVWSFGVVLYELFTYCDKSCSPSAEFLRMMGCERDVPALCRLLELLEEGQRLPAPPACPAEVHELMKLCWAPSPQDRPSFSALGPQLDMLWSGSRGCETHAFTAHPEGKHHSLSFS
Summary of the method: as §1

T1 sequence (P23458 whole entry): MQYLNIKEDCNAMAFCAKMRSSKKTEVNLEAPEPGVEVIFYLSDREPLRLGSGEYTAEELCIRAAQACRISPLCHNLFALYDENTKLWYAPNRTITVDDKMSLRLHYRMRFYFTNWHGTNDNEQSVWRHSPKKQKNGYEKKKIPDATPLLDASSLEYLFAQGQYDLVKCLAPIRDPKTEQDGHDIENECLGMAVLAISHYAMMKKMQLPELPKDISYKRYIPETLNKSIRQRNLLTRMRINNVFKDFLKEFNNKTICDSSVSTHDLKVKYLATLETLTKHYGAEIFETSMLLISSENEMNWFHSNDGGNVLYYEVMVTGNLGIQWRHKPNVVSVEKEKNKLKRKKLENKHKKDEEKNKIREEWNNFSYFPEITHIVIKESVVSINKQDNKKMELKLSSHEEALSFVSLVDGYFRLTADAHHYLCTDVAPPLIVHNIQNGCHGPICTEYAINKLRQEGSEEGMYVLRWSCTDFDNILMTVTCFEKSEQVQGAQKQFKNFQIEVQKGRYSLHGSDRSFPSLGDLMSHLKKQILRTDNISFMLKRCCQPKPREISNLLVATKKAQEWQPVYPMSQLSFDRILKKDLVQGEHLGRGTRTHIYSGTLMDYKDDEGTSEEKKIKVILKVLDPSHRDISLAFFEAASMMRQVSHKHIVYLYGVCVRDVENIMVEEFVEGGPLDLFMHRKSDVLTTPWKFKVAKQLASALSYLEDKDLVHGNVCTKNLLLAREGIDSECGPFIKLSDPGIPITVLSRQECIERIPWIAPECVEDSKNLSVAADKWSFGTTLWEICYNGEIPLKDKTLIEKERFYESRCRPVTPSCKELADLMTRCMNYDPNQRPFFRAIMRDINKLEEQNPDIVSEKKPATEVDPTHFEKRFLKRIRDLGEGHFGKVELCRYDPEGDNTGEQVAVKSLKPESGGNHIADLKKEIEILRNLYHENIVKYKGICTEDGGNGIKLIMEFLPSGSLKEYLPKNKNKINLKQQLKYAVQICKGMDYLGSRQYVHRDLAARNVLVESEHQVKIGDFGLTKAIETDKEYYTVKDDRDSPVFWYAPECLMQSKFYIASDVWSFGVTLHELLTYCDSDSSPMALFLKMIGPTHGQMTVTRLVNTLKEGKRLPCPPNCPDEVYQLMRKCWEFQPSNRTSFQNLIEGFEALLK

Row | SMILES | Ki [1] [nM] | Ki [2] [nM] | Ki [3] [nM] | IC50 [4] [nM] | Ki [5] [nM] | JAK3 (pKi)-JAK1 (pKi) [5] | JAK 1 (pKi) [1] | JAK 2 (pKi) [2] | Tyk 2 (pKi) [3] | Tall-1 (pIC50) [4] | JAK 3 (pKi) [5]
1 | C=CC(=O)N1CC[C@H](Oc2cc(-c3ccc(O)c(Cl)c3)cc3[nH]nc(SC)c23)C1 [Compound 1-41] | > 100 | > 100 | > 100 | 31.6 to 200 | 0.1 to 1 | A (a value of 3 or above) | – | – | – | – | –
2 | C=CC(=O)N1CC[C@H](Oc2cc(-c3ccc(O)cc3)cc3[nH]nc(OC)c23)C1 [Compound 1-44] | > 100 | > 100 | > 100 | < 31.6 | < 0.1 | A (a value of 3 or above) | – | – | – | – | –
3 | C=CC(=O)N1CC[C@H](Oc2cc(-c3ccc(O)cc3)cc3[nH]nc(C#N)c23)C1 [Compound 1-45] | > 100 | > 100 | > 100 | < 31.6 | < 0.1 | A (a value of 3 or above) | – | – | – | – | –
4 | C=CC(=O)N1CC[C@H](Oc2cc(-c3ccc(O)cc3)cc3[nH]nc(Cl)c23)C1 [Compound 1-47] | – | – | – | – | – | B (a value of 2.3 to 3) | E (a pKi value of 7 or below (Ki of 100 nM or above)) | E (a pKi value of 7 or below (Ki of 100 nM or above)) | E (a pKi value of 7 or below (Ki of 100 nM or above)) | B (a pIC50 value between 6.7 (included) and 7.5 (IC50 between 200 nM and 32 nM)) | B (a pKi value between 9 and 10 (Ki between 1 nM and 0.1 nM))
5 | CN(C)C/C=C/C(=O)N1CC[C@H](COc2cc(-c3ccc(O)c(Cl)c3)cc3[nH]ncc23)C1 [Compound 2-2] | – | – | – | – | – | A (a value of 3 or above) | E (a pKi value of 7 or below (Ki of 100 nM or above)) | D (a pKi value between 7 and 8 (Ki between 100 nM and 10 nM)) | E (a pKi value of 7 or below (Ki of 100 nM or above)) | B (a pIC50 value between 6.7 (included) and 7.5 (IC50 between 200 nM and 32 nM)) | B (a pKi value between 9 and 10 (Ki between 1 nM and 0.1 nM))
6 | C=CC(=O)N1CC[C@H](COc2cc(-c3ccc(O)c(Cl)c3)cc3[nH]ncc23)C1 [Compound 2-3] | – | – | – | – | – | A (a value of 3 or above) | E (a pKi value of 7 or below (Ki of 100 nM or above)) | D (a pKi value between 7 and 8 (Ki between 100 nM and 10 nM)) | E (a pKi value of 7 or below (Ki of 100 nM or above)) | B (a pIC50 value between 6.7 (included) and 7.5 (IC50 between 200 nM and 32 nM)) | B (a pKi value between 9 and 10 (Ki between 1 nM and 0.1 nM))
